From patent US20040029860A1, “Anti-proliferative drugs” (priority 2000, published 2004)
“Also recorded” adds a separate entry of the source. Read-outs that look alike come from different tables or passages of the source.

Legend:
[1] = system: human prostate (LN-CapAp); experiment: cell viability, prostate LN-Cap; format: cell-based; details: for inhibition of cell proliferation, LN-Cap (in words): 1 μM-100 μM, androgen dependent, FIG. 2A; for IC50: Table 1A, read-out: Viability IC50 Prostate LN-Cap
Protocol: The effect of trifluoperazine and flupentixol was studied in two cell-lines of human prostate cancer: androgen dependent (LN-Cap) and androgen independent (PC-3).
(§1) Cyclic antidepressants at varying concentrations (between 10PM and 100 μM) was applied to neuroblastoma SH-SY5T, 3LL lung carcinoma, prostate (LN-CapAp), melanoma B16, and cell viability was determined as described above.

different cell-lines = experiment: mean IC50 over cell lines and therapeutic index
[2] = system: human prostate cancer PC-3; experiment: cell viability, prostate PC-3; format: cell-based; details: for inhibition of cell proliferation, PC-3 (in words): 1 μM-100 μM, androgen independent, FIG. 2B; for IC50: Table 1A, read-out: Viability IC50 Prostate PC3
mouse melanoma (B-16) = experiment: cell viability, melanoma B16; format: cell-based; details: Table 1A, read-out: Viability IC50 Melanoma B16
Protocol: as §1

rat glioblastoma (C6) = experiment: cell viability, glioma C6; format: cell-based; details: for IC50: Table 1A
[3] = system: mouse embryo whole brain culture; experiment: primary tissue culture, whole brain; format: cell-based; details: read-out: IC50 whole brain tissue
[4] = system: human neuroblastoma (SH-SY5T); experiment: cell viability, neuroblastoma SH-SY5T; format: cell-based; details: Homo sapiens; Table 1B; read-out: Cell viability IC50 Neuroblastoma SH-SY5T
Protocol: The effect of paroxetine on primary tissue cultures was also evaluated. […] The viability of the cells after treatment with paroxetine was determined by neutral red (NR) technology 24 hr. post treatment.
as §1

mouse lung sarcoma (3LL) = experiment: cell viability, lung 3LL; format: cell-based; details: Mus musculus; Table 1B; read-out: Cell viability IC50 Lungs Sarcoma 3LL
Protocol: In another experiment the effect of clotiapine at the same concentrations on the viability of mouse lung carcinoma (3LL) cells was determined.
as §1

[5] = system: human neuroblastoma (SK-N-SH); experiment: cell viability (neutral red, Almar Blue, Hoechst dye), neuroblastoma SK-N-SH; format: cell-based; details: Table 1C
B16 melanoma = details: for mean number of metastases: controls 53.8+; for mean lungs weight: day 27, controls 685; for mice with confluent lungs: controls 6/7
Protocol: Female C57 mice aged 5-7 weeks were used, animals were divided into 3 treatment groups:
1. Controls: B16 inoculated vehicle treated;
Half of the animals were sacrificed after 21 days and half after 27 days. Lungs weight and number of metastases were recorded.

B16 melanoma cells = format: in vivo
Protocol: Male C57 black mice aged 5-7 weeks were used. Animals were inoculated with B16 melanoma cells by iv. injection (200,000 cells/mouse) to the tail vein. […]. Body weight was recorded three times weekly during the experiment and survival was registered. Animals were sacrificed 24 days after cell inoculation, and lungs were dissected and weighted.

[6] = system: mouse Lewis lung carcinoma (3LL); experiment: in vivo effect on Lewis lung carcinoma (3LL) in mice; details: 3LL inoculated C57 mice, i.p. daily, thioridazine 15 mg/kg, others 30 mg/kg
Protocol: Female C57 black mice aged 4 weeks were used in order to evaluate the in vivo effect of cyclic psychotropic agents on tumor cells. In particular, animals were divided into 5 groups (6-8 mice each). Animals were inoculated with mouse Lewis lung carcinoma (3LL, 0.5 million each) by i.v. injection to the tail vein and then treated by i.p. injection daily for 3 weeks with the following different agents
(5) Paroxetine (30 mg/kg).
During the treatment period animals were inspected daily and their body weight registered twice a week. […] After the four weeks of treatment the mice were sacrificed and their lungs dissected and weighted.

HaCat I5 cells = experiment: DNA fragmentation, flow cytometry, HaCat I5; format: cell-based, human; details: basal 10.23%
Protocol: (§2) DNA fragmentation was determined by flow cytometric analysis of propidium iodide-stained cells according to the method of Vindelov et al Vindelov, L. L., et al. Cytometry.

p53 mutant = p53 mutant expression, western blotting in glioma C6; format: cell-based, rat; details: 30 and 60 μM, FIG. 8
HaCat cells = experiment: DNA fragmentation, flow cytometry, HaCat; format: cell-based, human; details: basal 29%
Protocol: as §2

HaCat keratinocytes = experiment: keratinocyte viability, Neutral red, HaCat; format: cell-based, human; details: 5-100 μM, 24 hr, Neutral red; FIG. 13A, 15A
Protocol: (§3) The drugs were administered at concentrations within the range of 5-100 μM and cell viability was measured 24 hr post-administration by Neutral red staining. The efficiency of the agents against viability of the cell lines was evaluated also by comparison with two commonly used anticancer agents (Doxorubicin and 5-fluorouracil (5-FU)) at equimolar concentrations.

HaCat I5 keratinocytes = experiment: keratinocyte viability, Neutral red, HaCat I5; format: cell-based, human; details: 5-100 μM, 24 hr, Neutral red; FIG. 13B, 15B
Protocol: as §3

Melanoma B16 cells [7] = system: Melanoma B16 cells
Protocol: Animals were divided into three groups:
1. Controls B16 with no therapy;
Water consumption was registered daily, and calculation of dose was performed according to the mean consumed water. Body weight was registered 3 time/week.

Melanoma B16 cells [8] = system: Melanoma B16 cells; remark: listed apart in the source
Protocol: Mice C57 black females ages 5-7 weeks were used. Mice were inoculated with Melanoma B16 cells and divided randomly (7-8/cage). Animals were divided into three groups:
1. Control-B16 cells with no therapy;
2. Treatment with doxorubicin 4 mg/kg i.p given once (3 days later).

[9] = primary culture, data not shown

Question: How did the “inhibition of cell proliferation, LN-Cap (in words)” value [1] turn out when `OCCN1CCN(CC/C=C2/c3ccccc3Sc3ccc(C(F)(F)F)cc32)CC1` [Flupentixiol] was run?
Answer: effective in inhibition of cell proliferation

Question: What about the IC50 [1] of the same molecule?
Answer: 23 µM

Question: What about the IC50 (different cell-lines; read-out: IC50 Mean ± SD, Table 1A, mean over the cell lines) of the same molecule?
Answer: 18.2 ± 3.2 µM

Question: And the “inhibition of cell proliferation, PC-3 (in words)” value [2]?
Answer: effective in inhibition of cell proliferation

Question: What about the IC50 [2] of the same molecule?
Answer: 18 µM

Question: What about the IC50 (mouse melanoma (B-16)) of the same molecule?
Answer: 18 µM

Question: What about the IC50 (rat glioblastoma (C6)) of the same molecule?
Answer: 14 µM

Question: Which IC50 [3, 9] does the source give for `O=C(CCCN1CCC(O)(c2ccc(Cl)cc2)CC1)c1ccc(F)cc1` [Haloperidol] here?
Answer: > 200 µM

Question: With `CN(C)CCCN1c2ccccc2CCc2ccccc21` [Imipramine] as the molecule, how does the IC50 [4] read?
Answer: 69 µM

Question: And the IC50 (different cell-lines; read-out: IC50 Mean +/− SD)?
Answer: 38.5 µM

Question: What about the IC50 (mouse lung sarcoma (3LL)) of the same molecule?
Answer: 12 µM

Question: `Cc1nc2n(c(=O)c1CCN1CCC(c3noc4cc(F)ccc34)CC1)CCCC2` [Risperidone] was tested. Which IC50 [3] did it give?
Answer: > 200 µM

Question: For `CCN1CCCC1CNC(=O)c1cc(S(N)(=O)=O)ccc1OC` (centres unmarked) [Sulpiride], which “Viability IC50 Prostate LN-CapAp” value ([1]; Table 1C) is on record?
Answer: Non Toxic

Question: And the IC50 [3, 9]?
Answer: > 200 µM

Question: What about the “Viability IC50 Neuroblastoma SK-N-SH” value [5] of the same molecule?
Answer: Non Toxic

Question: What about the “Viability IC50 Glioma C6” value (rat glioblastoma (C6); Table 1C) of the same molecule?
Answer: Non Toxic

Question: What does the source list for `CSc1ccc2c(c1)N(CCC1CCCCN1C)c1ccccc1S2` (centres unmarked) [Thioridazine]?
Answer: mean number of metastases (B16 melanoma; 10 mg/kg i.p. x3/week, after 21 days): 46.1; mean lungs weight (B16 melanoma; 10 mg/kg): 520 mg; mice with confluent lungs (B16 melanoma; 10 mg/kg): 6/7; mean number of metastases (B16 melanoma; […] mg/kg i.p. x3/week, after 21 days): 28.5; mean lungs weight (B16 melanoma; […] mg/kg): 335 mg; mice with confluent lungs (B16 melanoma; […] mg/kg): 2/7; lungs weight (B16 melanoma; after 21 days, vs controls): No difference; effective doses (B16 melanoma; parenteral route, B16 melanoma in mice): 15 to 20 mg/kg; toxic concentrations (B16 melanoma; parenteral route, mice): higher than 30 mg/kg; survival rate (B16 melanoma cells; 2.5 mg/kg i.p. 3 times/week): 4/5; survival rate (B16 melanoma cells; 5 mg/kg i.p. 3 times/week): 3/4; survival rate (B16 melanoma cells; 10 mg/kg i.p. 3 times/week): 5/5; lungs weight (B16 melanoma cells; 20 mg/kg compared to 2.5 mg/kg (p=0.05), 24 days after inoculation): significant decrease; survival rate (B16 melanoma cells; 20 mg/kg i.p. 3 times/week): 5/5; survival rate during four weeks of treatment [6]: 7/7; lungs weight / tumor size compared to control group ([6]; FIG. 5): effective in reducing tumor size; apoptosis (DNA fragmentation) (HaCat I5 cells; 25 μM): 74.5%; apoptosis (DNA fragmentation) (HaCat I5 cells; 50 μM): 76.6%; mean decrease in expression of p53 mutant (p53 mutant): 75%; rate of DNA fragmentation (HaCat cells; 25 μM): 82.8%; rate of DNA fragmentation (HaCat cells; 50 μM): 89.3%; cell viability HaCat (in words) (HaCat keratinocytes): effective in reducing cell viability; also recorded: responded; cell viability HaCat I5 (in words) (HaCat I5 keratinocytes): effective in reducing cell viability; also recorded: responded; mice with big or conglomerate metastases (Melanoma B16 cells [7]; 20-30 mg/kg per day, after 24 days, same rate as controls): 1/7; animals with confluent metastases (Melanoma B16 cells [7]; 27 and 30 days, controls 6/11): 0/21; big or confluent metastases (Melanoma B16 cells [7]; 30-40 mg/kg per day, after 24 days): No big or confluent metastases were found; spontaneous death during experiment (Melanoma B16 cells [7]; controls 5/18): 2/36; body weight vs healthy and B16 controls (Melanoma B16 cells [7]; in drinking water): No difference

Question: How did the “inhibition of cell proliferation, LN-Cap (in words)” value [1] turn out when `CN1CCN(CCCN2c3ccccc3Sc3ccc(C(F)(F)F)cc32)CC1` [Trifluoperazine] was run?
Answer: effective in inhibition of cell proliferation

Question: And the IC50 ([1]; Homo sapiens, LNCaP)?
Answer: 18 µM

Question: And the IC50 (different cell-lines; read-out: IC50 Mean ± SD)?
Answer: 16.7 ± 1.9 µM

Question: And the “inhibition of cell proliferation, PC-3 (in words)” value [2]?
Answer: effective in inhibition of cell proliferation

Question: And the IC50 ([2]; Homo sapiens)?
Answer: 19 µM

Question: And the IC50 (mouse melanoma (B-16); Mus musculus)?
Answer: 16 µM

Question: What about the IC50 (rat glioblastoma (C6); Rattus norvegicus) of the same molecule?
Answer: 14 µM

Question: With `COc1cccc2c1C(=O)c1c(O)c3c(c(O)c1C2=O)C[C@@](O)(C(=O)CO)C[C@@H]3O[C@H]1C[C@H](N)[C@H](O)[C@H](C)O1` [doxorubicin] as the molecule, how does the “Confluent lung metastases (number of mice)” value (Melanoma B16 cells [8]; Table 2, of 7 total) read?
Answer: 3

Question: What about the “Early death (number of mice)” value (Melanoma B16 cells [8]; Table 2, of 7 total) of the same molecule?
Answer: 2

Question: And the “Non-confluent lung metastases (number of mice)” value (Melanoma B16 cells [8]; Table 2, of 7 total)?
Answer: 2

Question: What about the “number of animals presenting non confluent lungs” value (Melanoma B16 cells [8]; after 21 days, B16 control 0/7) of the same molecule?
Answer: 2/7

Question: And the lungs weight (Melanoma B16 cells [8]; after 21 days, B16 controls 770+/−95)?
Answer: 538 ± 137 mg

Question: And the “survival / animals died” value (Melanoma B16 cells [8]; doxorubicin 4 mg/kg i.p. once, thioridazine 25-35 mg/kg/day via drinking water)?
Answer: 2/7

Question: And the “cell viability HaCat (in words)” value (HaCat keratinocytes)?
Answer: same equimolar IC50 levels as for thioridazine

Question: And the “cell viability HaCat I5 (in words)” value (HaCat I5 keratinocytes)?
Answer: only the HaCat (non tumorigenic) cells responded
